Reference: publication PMC9027957, “Interspecies Comparisons of the Effects of Potential Antiviral 3-Amidinophenylalanine Derivatives on Cytochrome P450 1A2 Isoenzyme” (Veterinary Sciences, 2022)

Tests used:
CYP1A2 [1] = target: T1, CYP1A2 (Macaca fascicularis, UniProt O77809); conditions: 10 µM
T1 sequence (O77809 1-516): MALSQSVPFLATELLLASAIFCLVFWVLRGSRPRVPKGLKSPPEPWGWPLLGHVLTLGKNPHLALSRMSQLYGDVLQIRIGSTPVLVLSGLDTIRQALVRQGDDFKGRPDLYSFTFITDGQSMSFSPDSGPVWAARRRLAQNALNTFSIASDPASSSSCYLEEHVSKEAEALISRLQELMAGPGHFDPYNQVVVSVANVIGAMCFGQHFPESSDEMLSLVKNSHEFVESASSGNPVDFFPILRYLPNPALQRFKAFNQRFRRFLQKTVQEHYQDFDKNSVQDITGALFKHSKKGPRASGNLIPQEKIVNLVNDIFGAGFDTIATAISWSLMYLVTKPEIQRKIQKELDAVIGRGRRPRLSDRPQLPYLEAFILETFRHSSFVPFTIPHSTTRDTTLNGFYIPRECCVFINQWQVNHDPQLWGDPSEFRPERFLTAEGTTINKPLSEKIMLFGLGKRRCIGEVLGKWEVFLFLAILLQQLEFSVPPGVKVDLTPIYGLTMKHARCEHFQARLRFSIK
Protocol: (§4) For the measurements of CYP1A2 activities, hepatocytes were grown on 24-well collagen-coated membrane inserts (Costar Transwell-PTFE membrane, 6.5 mm, pore size: 0.4 µm, Merck, Darmstadt, Germany). […] The determination of the CYP1A2 activities were performed using the P450-Glo CYP450 Assay (Promega, Madison, WI, USA) according to the manufacturer’s instructions.

CYP1A2 [2] = target: T2, CYP1A2 (Rattus norvegicus, UniProt P04799); test: CYP1A2 fluorometric activity assay in rat hepatic microsomes; format: in vitro ADME, rat (Sprague–Dawley); design: Rat (Sprague–Dawley) and beagle (Gibco, Biocenter, Szeged, Hungary, protein concentration: 20 mg/mL) hepatic microsomal preparations; tissue Gibco, Biocenter, Szeged, Hungary; host or cells: liver (hepatic microsomes), Sprague-Dawley rat; conditions: 15 min at 37 °C
T2 sequence (P04799 1-513): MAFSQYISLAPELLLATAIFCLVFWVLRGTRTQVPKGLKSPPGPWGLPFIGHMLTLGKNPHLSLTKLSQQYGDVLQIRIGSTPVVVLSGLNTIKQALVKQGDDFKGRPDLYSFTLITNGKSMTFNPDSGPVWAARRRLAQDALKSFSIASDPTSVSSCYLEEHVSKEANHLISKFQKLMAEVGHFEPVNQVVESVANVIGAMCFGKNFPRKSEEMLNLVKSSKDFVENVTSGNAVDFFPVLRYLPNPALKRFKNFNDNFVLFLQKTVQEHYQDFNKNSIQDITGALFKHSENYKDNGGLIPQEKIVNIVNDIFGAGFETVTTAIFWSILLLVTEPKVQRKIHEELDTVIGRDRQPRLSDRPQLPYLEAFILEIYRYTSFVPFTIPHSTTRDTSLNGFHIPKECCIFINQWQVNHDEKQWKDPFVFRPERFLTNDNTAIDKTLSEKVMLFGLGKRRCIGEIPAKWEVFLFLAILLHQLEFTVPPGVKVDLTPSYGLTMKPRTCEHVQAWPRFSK
Protocol: (§1) The Biovision CYP assay (BioVision, Inc., Kampenhout, Belgium) utilizes a non-fluorescent CYP1A2 substrate capable of transforming into a highly fluorescent metabolite, which can be detected in the visible range. α-naphthoflavone was used as a CYP1A2 reference inhibitor at 6 µM during the experiments. Rat (Sprague–Dawley) and beagle (Gibco, Biocenter, Szeged, Hungary, protein concentration: 20 mg/mL) hepatic microsomal preparations were prepared separately by mixing 25 µL of the obtained rat or beagle microsomal suspension with 2425 µL assay buffer and with 50 µL NADPH generating system (100×). In the case of the cynomolgus monkey microsomal suspension (Primacyt, Schwerin, Germany, protein concentration: 5 mg/mL), the following volumes were applied: in addition to 100 µL of monkey microsomal suspension, the amount of assay buffer and the NADPH generating system were adjusted in order to ensure the original ratios of these components to reach a final volume of 2500 µL. Rat, beagle, and cynomolgus monkey microsomal suspension aliquots (50 µL) were treated with the protease inhibitor 20 µL, 0–1000 µM), the reference compound α-naphthoflavone (20 µL, 30 µM), or the assay buffer without test compounds (20 µL, background control) for 15 min at 37 °C. After incubation, 30 µL of the appropriate CYP1A2 substrate/NADP+ mixture was added to each well, yielding a final reaction volume of 100 µL/well. The protein contents of the obtained microsomes were analysed using bicinchoninic acid protein assay kit (Pierce BCA kit, Thermo Fisher Scientific, Waltham, MA, USA). […] The fluorescence intensities were measured with a fluorometer (Victor X2 2030, Perkin Elmer, Waltham, MA, USA), using λEx/Em = 406/468 nm.

CYP1A2 [3] = target: T3, CYP1A2 (Canis lupus familiaris, UniProt P56592); format: cell-based; conditions: dog, 10 µM
T3 construct: endogenous in cells; host or cells: beagle hepatocytes
T3 sequence (P56592 1-512): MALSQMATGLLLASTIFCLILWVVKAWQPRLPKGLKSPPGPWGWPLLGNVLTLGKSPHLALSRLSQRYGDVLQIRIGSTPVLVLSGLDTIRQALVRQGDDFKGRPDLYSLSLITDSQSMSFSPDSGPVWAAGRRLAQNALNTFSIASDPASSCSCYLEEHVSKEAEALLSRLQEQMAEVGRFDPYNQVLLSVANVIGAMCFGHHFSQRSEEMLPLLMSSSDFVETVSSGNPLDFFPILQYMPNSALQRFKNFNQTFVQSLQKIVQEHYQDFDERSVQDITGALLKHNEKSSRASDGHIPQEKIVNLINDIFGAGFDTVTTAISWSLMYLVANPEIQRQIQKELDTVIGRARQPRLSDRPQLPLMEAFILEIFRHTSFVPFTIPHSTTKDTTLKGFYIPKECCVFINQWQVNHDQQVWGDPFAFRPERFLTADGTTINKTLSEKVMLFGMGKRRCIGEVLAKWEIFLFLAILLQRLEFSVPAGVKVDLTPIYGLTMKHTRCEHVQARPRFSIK
Protocol: as §4

CYP1A2 [4] = target: T2, CYP1A2; test: CYP1A2 luminescent (P450-Glo) activity assay in rat hepatocytes; format: cell-based; design: endogenous in cells; host or cells: rat hepatocytes; conditions: positive control at 10 µM
Protocol: as §4

CYP1A2 [5] = target: T3, CYP1A2; test: CYP1A2 fluorometric activity assay in beagle hepatic microsomes; format: in vitro ADME; conditions: 15 min at 37 °C
Protocol: as §1

[6] = 60 min microsomal stability assay (UPLC-MS/MS), cynomolgus monkey liver microsomes; format: in vitro ADME; conditions: monkey microsomes, 50 µM, 0.6 mg/mL protein, mean ± SD (n = 3)
Protocol: (§2) Rat, beagle (Gibco, Biocenter, Szeged, Hungary), and cynomolgus monkey (Primacyt, Schwerin, Germany) liver microsomes were exposed to inhibitors MI-432, MI-463, MI-482, or MI-1900 at 50 µM for 60 min. The final microsomal protein concentration in the suspension was 0.6 mg/mL in each case. The reaction buffer (100 mM phosphate buffer pH 7.4) also contained 1 mM nicotinamide adenine dinucleotide phosphate (NADPH), 5 mM MgCl2, 10 mM glucose-6-phosphate (G6P), and 2 IU/mL glucose-6-phosphate dehydrogenase (G6PD). The reaction was terminated by the addition of ice-cold acetonitrile (ACN) with the ratio of sample ACN volume = 1:2. The precipitated protein was removed by centrifugation at 10,000× g for 10 min, and the supernatants were used for subsequent analyses.
(§3) The determination of all analytes was carried out using an UPLC/MS/MS system, which consisted of an HPLC apparatus (SCIEX ExionLC^TM UPLC, Framigham, MA, USA) and a SCIEX Qtrap 4500 triple-quadrupole mass spectrometer (Framigham, MA, USA) equipped with a SCIEX Turbo V electrospray ionization source. The HPLC columns used were LiChrospher RP Select B (125 × 4.0 mm, 5.0 μm, C8 stationary phase). Next, 0.1% trifluoroacetic acid in ultra-purified water (A) and acetonitrile (B) were used as mobile phases for chromatographic separations applying a gradient elution. The HPLC gradient program was the following: between 0 and 10 min, a ratio of 70% A and 30% B; from 10 to 20 min, linearly increasing to a ratio of 50% A and 50% B; from 20 to 21 min, maintained at a ratio of 50% A and 50% B; from 21 to 22 min, linearly decreasing back to a ratio of 70% A and 30% B; and between 22 min and 30 min, maintained at a ratio of 70% A and 30% B. The run time was 30 min, the column temperature was adjusted to 35 °C, and the flow rate was 1 mL/min.

CYP1A2 [7] = target: T1, CYP1A2; test: CYP1A2 fluorometric activity assay in cynomolgus monkey hepatic microsomes; format: in vitro ADME; design: cynomolgus monkey microsomal suspension (Primacyt, Schwerin, Germany, protein concentration: 5 mg/mL); tissue Primacyt, Schwerin, Germany; host or cells: liver (hepatic microsomes); conditions: for CYP1A2 in the cynomolgus monkey microsomal model: inhibitors at 50 µM
Protocol: as §1

[8] = 60 min microsomal stability assay (UPLC-MS/MS), beagle liver microsomes; format: in vitro ADME; conditions: beagle microsomes, 50 µM, 0.6 mg/mL protein, mean ± SD (n = 3)
Protocol: as §2, §3

[9] = 60 min microsomal stability assay (UPLC-MS/MS), rat liver microsomes; format: in vitro ADME; conditions: rat microsomes, 50 µM, 0.6 mg/mL protein, mean ± SD (n = 3)
Protocol: as §2, §3

[10] = inhibitors at 50 µM, vs untreated control

| Compound | CYP1A2 activity in cynomolgus monkey hepatocytes (CYP1A2 [1]) | rat hepatic microsomal CYP1A2 isoenzyme activity (CYP1A2 [2]; reference inhibitor at 6 µM) | CYP1A2 activity in beagle hepatocytes (CYP1A2 [3]) | CYP1A2 activity in rat hepatocytes (CYP1A2 [4]) | beagle hepatic microsomal CYP1A2 isoenzyme activity (CYP1A2 [5]; reference inhibitor at 6 µM) | depletion percentage of the parent compound [6] [%] | rat hepatic microsomal CYP1A2 isoenzyme activity (CYP1A2 [2]; [10]) | IC50 (CYP1A2 [7]) [nM] | CYP1A2 in the cynomolgus monkey microsomal model (CYP1A2 [7]) | depletion percentage of the parent compound [8] [%] | depletion percentage of the parent compound [9] [%] | beagle hepatic microsomal CYP1A2 isoenzyme activity (CYP1A2 [5]; [10]) |
| --- | --- | --- | --- | --- | --- | --- | --- | --- | --- | --- | --- | --- |
| O=c1cc(-c2ccccc2)oc2c1ccc1ccccc12 [α-naphthoflavone, reference compound] | significantly suppress CYP1A2 activities | significantly suppressed CYP1A2 activities | significantly suppress CYP1A2 activities | significantly suppress CYP1A2 activities | significantly suppressed CYP1A2 activities | – | – | – | – | – | – | – |
| COc1ccc(-c2cccc(S(=O)(=O)N[C@@H](Cc3cccc(C(=N)N)c3)C(=O)N3CCC(NC(=O)NC4CCCCC4)CC3)c2)c(OC)c1 [MI-463] | – | – | – | – | – | 17.7 ± 4.6 | suppressed | 2400 ± 1400 | inhibited | 15.7 ± 8 | 15.1 ± 6.5 | – |
| N=C(N)c1cccc(C[C@H](NS(=O)(=O)c2cccc(-c3cc(CO)ccc3Cl)c2)C(=O)N2CCC(CCNC(=O)NC3CCCCC3)CC2)c1 [MI-482] | – | – | – | – | – | 15.1 ± 7.3 | did not inhibit CYP1A2 function | 210 ± 90 | inhibited | 39.3 ± 6 | 31.4 ± 1.1 | reduced the activity of CYP1A2 |
